Assay results as given in patent US10301306B2, “Substituted dihydro-1H-pyrrolo[3,2-c]pyridin-4(5H)-ones as RIPK3 inhibitors” (BRISTOL-MYERS SQUIBB COMPANY, priority 2014, dated 2019).

The compounds below were run against RIPK3 (Homo sapiens (Human), UniProt Q9Y572) (assay: RIPK3 HTRF Kinase Assay). Details: RIPK3 1 nM; HTRF probe 23 nM; 60 min at room temperature; read-out: IC50 for Inhibition of RIPK3.
Sequence of RIPK3 (Q9Y572 whole entry, species assumed): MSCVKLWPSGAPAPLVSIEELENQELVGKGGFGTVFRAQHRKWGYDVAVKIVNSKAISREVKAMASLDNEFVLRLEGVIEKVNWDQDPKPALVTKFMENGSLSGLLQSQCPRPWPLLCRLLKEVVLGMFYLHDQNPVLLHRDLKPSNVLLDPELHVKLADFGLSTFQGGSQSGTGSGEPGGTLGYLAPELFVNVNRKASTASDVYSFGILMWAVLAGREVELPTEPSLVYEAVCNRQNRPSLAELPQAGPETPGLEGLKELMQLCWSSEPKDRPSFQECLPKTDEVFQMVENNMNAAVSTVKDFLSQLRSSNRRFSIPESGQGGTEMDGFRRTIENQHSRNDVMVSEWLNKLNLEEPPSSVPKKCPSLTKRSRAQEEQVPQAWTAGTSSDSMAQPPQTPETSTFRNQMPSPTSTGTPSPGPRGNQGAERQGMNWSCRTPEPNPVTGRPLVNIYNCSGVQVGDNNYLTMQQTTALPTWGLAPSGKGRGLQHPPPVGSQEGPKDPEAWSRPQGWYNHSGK
Type: binding
Compound `N#Cc1cc(F)ccc1Cn1c2c(c(-c3ccc(C(F)(F)F)cc3)c1-c1ccncc1)C(=O)NCC2` [Example 9, 5-Fluoro-2-((4-oxo-2-(pyridin-4-yl)-3-(4-(trifluoromethyl)phenyl)-4,5,6,7-tetrahydro-1H-pyrrolo[3,2-c]pyridin-1-yl)methyl)benzonitrile] has an IC50 of 0.031 to 0.1 µM. In the case of `Cc1cc(Cn2c3c(c(-c4ccc(F)cc4)c2-c2ccncc2)C(=O)NCC3)n(C)n1` [Example 65], the IC50 is reported as < 0.03 µM. Compound `CC(=O)Nc1cccc(-c2c3c(n(CC4CCOCC4)c2-c2ccncc2)CCNC3=O)c1` [Example 106] has an IC50 of 0.1 to 15 µM. With `Cc1n[nH]cc1-c1c(-c2ccc(F)cc2)c2c(n1Cc1ccc(F)cc1C#N)CCNC2=O` [Example 1, 5-Fluoro-2-((3-(4-fluorophenyl)-2-(3-methyl-1H-pyrazol-4-yl)-4-oxo-4,5,6,7-tetrahydro-1H-pyrrolo[3,2-c]pyridin-1-yl)methyl)benzonitrile] the IC50 was 0.1 to 15 µM. `N#Cc1cc(F)ccc1Cn1c2c(c(-c3ccc(F)cc3)c1-c1ccncc1F)C(=O)NCC2` [Example 27] was tested, and the IC50 was < 0.03 µM. In the case of `COc1ccc(CCn2c3c(c(-c4ccc(F)cc4)c2-c2ccncc2)C(=O)NCC3)cc1` [Example 37], the IC50 is reported as 0.1 to 15 µM. Work on `CCC(C)n1c2c(c(-c3ccc(F)cc3)c1-c1ccncc1)C(=O)NCC2` (stereo not shown) [Example 63] yielded an IC50 of 0.1 to 15 µM. Compound `O=C1NCCc2c1c(-c1ccc(F)cc1)c(-c1ccncc1)n2Cc1ccc(OC(F)(F)F)c(Cl)c1` [Example 40] has an IC50 of 0.1 to 15 µM. Compound `Cc1cc(Cn2c3c(c(-c4cccc(CCc5ccccc5)c4)c2-c2ccncc2)C(=O)NCC3)n(C)n1` [Example 180] has an IC50 of 0.1 to 15 µM. `N#Cc1cc(F)ccc1Cn1c2c(c(-c3ccc(F)cc3)c1-c1ccoc1)C(=O)NCC2` [Example 23] gave an IC50 of 0.1 to 15 µM. `N#Cc1ccc(Cn2c3c(c(-c4ccc(F)cc4)c2-c2ccncc2)C(=O)NCC3)cc1F` [Example 35] gave an IC50 of 0.031 to 0.1 µM. `CC(=O)Nc1cc(-c2c(-c3ccc(F)cc3)c3c(n2CC2CCOCC2)CCNC3=O)ccn1` [Example 3, N-(4-(3-(4-Fluorophenyl)-4-oxo-1-((tetrahydro-2H-pyran-4-yl)methyl)-4,5,6,7-tetrahydro-1H-pyrrolo[3,2-c]pyridin-2-yl)pyridin-2-yl)acetamide] was tested, and the IC50 was 0.1 to 15 µM. `N#Cc1cc(F)ccc1Cn1c2c(c(-c3ccc(OCc4ccccc4)cc3)c1-c1ccncc1)C(=O)NCC2` [Example 135] was tested, and the IC50 was 0.1 to 15 µM. `CC(=O)Nc1cc(-c2c(-c3ccc(F)cc3)c3c(n2Cc2ccc(C(F)(F)F)cc2)CCNC3=O)ccn1` [Example 102] was tested, and the IC50 was 0.1 to 15 µM. `N#Cc1cc(F)ccc1Cn1c2c(c(-c3cccc(CO)c3)c1-c1ccncc1)C(=O)NCC2` [Example 134] was tested, and the IC50 was < 0.03 µM. With `N#Cc1cc(F)ccc1Cn1c2c(c(-c3ccc(F)cc3)c1-c1ccnc(C(F)(F)F)c1)C(=O)NCC2` [Example 16] the IC50 was 0.1 to 15 µM. Work on `COC(=O)c1cccc(-c2c3c(n(Cc4cc(C)nn4C)c2-c2ccncc2)CCNC3=O)c1` [Example 172] yielded an IC50 of 0.1 to 15 µM. With `Cc1ccc(-c2c3c(n(Cc4ccc(Cl)cc4F)c2-c2ccncc2)CCNC3=O)s1` [Example 164] the IC50 was < 0.03 µM. `N#Cc1cc(F)ccc1Cn1c2c(c(-c3ccc4ncccc4c3)c1-c1ccncc1)C(=O)NCC2` [Example 116] was tested, and the IC50 was 0.1 to 15 µM. In the case of `O=C1NCCc2c1c(-c1ccc(F)cc1)c(-c1ccncc1)n2Cc1ccncn1` [Example 72], the IC50 is reported as 0.1 to 15 µM. `N#Cc1ccc(Cn2c3c(c(-c4ccc(F)cc4)c2-c2ccncc2)C(=O)NCC3)nc1` [Example 54] gave an IC50 of 0.031 to 0.1 µM. For `O=C1NCCc2c1c(-c1ccc(F)cc1)c(-c1ccncc1)n2Cc1c(F)cc(F)cc1F` [Example 71], the IC50 was < 0.03 µM. In the case of `N#Cc1cc(F)ccc1Cn1c2c(c(-c3cccs3)c1-c1ccncc1)C(=O)NCC2` [Example 14, 5-Fluoro-2-((4-oxo-2-(pyridin-4-yl)-3-(thiophen-2-yl)-4,5,6,7-tetrahydro-1H-pyrrolo[3,2-c]pyridin-1-yl)methyl)benzonitrile], the IC50 is reported as < 0.03 µM. `CC(C)NC(=O)Cn1c2c(c(-c3ccc(F)cc3)c1-c1ccncc1)C(=O)NCC2` [Example 83] was tested, and the IC50 was 0.1 to 15 µM. `CCNC(=O)Nc1cc(-c2c(-c3ccc(F)cc3)c3c(n2CC2CCOCC2)CCNC3=O)ccn1` [Example 97] was tested, and the IC50 was 0.1 to 15 µM. With `Cn1cc(-c2c3c(n(Cc4ccc(Cl)cc4F)c2-c2ccncc2)CCNC3=O)cn1` [Example 165] the IC50 was 0.1 to 15 µM. With `COc1ccncc1-c1c2c(n(Cc3ccc(F)cc3C#N)c1-c1ccncc1)CCNC2=O` [Example 131] the IC50 was 0.1 to 15 µM. Work on `O=C1NCCc2c1c(-c1ccc(F)cc1)c(-c1ccncc1)n2Cc1nnc(C2CC2)o1` [Example 56] yielded an IC50 of 0.1 to 15 µM. With `O=C1NCCc2c1c(-c1ccc(F)cc1)c(-c1ccncc1)n2CC1CCNCC1` [Example 30] the IC50 was 0.1 to 15 µM. `CC(C)OC(=O)Nc1cc(-c2c(-c3ccc(F)cc3)c3c(n2CC2CCOCC2)CCNC3=O)ccn1` [Example 91] was tested, and the IC50 was 0.1 to 15 µM. Work on `O=C1NCCc2c1c(-c1ccc(F)cc1)c(-c1ccncc1)n2Cc1ccc(C2CC2)cc1` [Example 52] yielded an IC50 of 0.031 to 0.1 µM. With `O=C1NCCc2c1c(-c1ccc(F)cc1)c(-c1ccncc1)n2CC1CCOCC1` [Example 31] the IC50 was 0.1 to 15 µM. Work on `COc1cc(F)cc(-c2c3c(n(Cc4ccc(F)cc4C#N)c2-c2ccncc2)CCNC3=O)c1` [Example 117] yielded an IC50 of 0.031 to 0.1 µM.

Same assay, conditions: read-out: IC50 for Inhibition of RIPK3
In the case of `O=C1NCCc2c1c(-c1ccc(F)cc1)c(-c1ccncc1)n2CC1CCCNC1` (stereo not shown) [Example 32], the IC50 is reported as 0.1 to 15 µM.
